Entries after “also recorded” stand apart in the source; their conditions may differ. No end group written: not given here.
Columns and labels:
[1] = system: mice; test: hair growth over gel foam sponge implanted under shaved skin; type: in vivo; conditions: after five days
From the text: Small regions area of mice were shaved over of their skin and gel foam sponges impregnated with bFGF and urocortin, various growth factors, and CRF antagonist astressin were surgically implanted under the shaved skin. […] Therefore, urocortin and bFGF stimulate rapid hair growth.

[2] = system: CRFR2; conditions: urocortin versus CRF; cited from earlier work
[3] = system: wild type mice; test: cardiovascular response to intravenous infusion, wild type mice; type: in vivo
From the text: (§1) The cardiovascular responses to intravenous infusion of urocortin and sodium nitroprusside, a vasodilator, were examined in mice (wild type: n 5; mutant: n=3) anesthetized with isofluorine. The arterial catheter for blood pressure recording was fabricated from a sterile PE-10 tubing softened and pulled to an outer diameter of ˜0.4 mm. The femoral artery was exposed, and the arterial catheter filled with heparin saline (500 U/ml) was implanted and secured with surgical threads and tissue glue (Vetbond). […] A second catheter was then implanted in the external jugular vein for intravenous infusion of drugs. Drug infusion was performed […] following completion of the cannulation procedure. The venous catheter was connected to a drug-filled syringe. Infusion was completed within 0.5-1.0 min. Both wild type and mutants received an identical dose of urocortin (0.1 μg in 200 μl of 0.9% saline) and saline (as a control).
(§2) The doses used were determined from preliminary experiments with reference to data obtained from corresponding studies in Sprague Dawley rats (2). In order to verify that the lack of cardiovascular response to the urocortin injection in mutants was not attributed to the loss of ability of the mice to vasodilate, the mutant mice also received a second infusion of sodium nitroprusside (0.8 μg in 100 μl of 0.9% saline) following recovery of arterial pressure from the urocortin infusion. The mean arterial pressure (MAP) was determined from the blood pressure tracings.

[4] = system: CRFR2 null mutant mice; test: cardiovascular response to intravenous infusion, CRFR2 null mutant mice; type: in vivo; conditions: for arterial pressure response to urocortin: intravenous infusion
From the text: as §1, §2

Row | Substance | hair growth in shaved area above implanted sponge [1] | affinity for CRFR2 relative to CRF [2] [fold] | depressor response (change in arterial pressure) ([3]; control mice, anesthetized, urocortin 0.1 μg intravenous infusion) [mm Hg] | persistence of the reduction in arterial pressure (recording period) ([3]; control mice, urocortin 0.1 μg intravenous infusion) [min] | mean arteriole pressure response to intravenous urocortin ([3]; wild type animals) | arterial pressure response to urocortin [4] | arterial pressure response to urocortin ([4]; listed as UCN) | reduction in arterial pressure, only 1 mutant mouse, transient ([4]; urocortin 0.1 μg intravenous, likely attributable to injection pressure) [mmHg]
1 | astressin | Little hair growth |  |  |  |  |  |  | 
2 | urocortin (DNPSLSIDLTFHLLRTLLELARTQSQRERAEQNRIIFDSV; ends and bridges not checked; UniProt P55089 83-122, looked up) [a CRF-related peptide, thought to be the endogenous ligand for CRFR2] |  | ~40 | −28.3±2.0 | 90 to 120 | dramatic decrease | no measurable responses; also recorded: no response | remarkable muted response | −3.5
